Reference: patent US20080003627A1, “SYSTEM FOR BIOSYNTHESIS OF FIREFLY LU[…] WITH NATURAL L-CYSTEINE OR DERIVATIVES THEREOF AND LU[…] SOLUTIONS CONTAINING THE SYSTEM” (NATIONAL INSTITUTE OF ADVANCED INDUSTRIAL SCIENCE AND …, priority 2004, published 2008)

Molecular target: firefly luciferase (Photinus pyralis, UniProt P08659)
Assay: firefly luminescence reaction (luminescence activity as substrate)
Format: biochemical
Settings: ATP, Mg ion, luminometer
Description: In a buffer solution (0.1 M Tris-HCl, pH 8), 10 mM 2-cyano-6-hydroxybenzothiazole, 1 mM L-cysteine, 10 mM COA-SH, 0.1 mg/mL of firefly luciferase and 100 units/mL of swine liver esterase were dissolved, 10 μL of the mixture was dispensed in a tube for measuring the luminescence, and a total volume was made 100 μL by adding the same buffer. An ATP—Mg solution (100 μL, 6 mM ATP—Na, 16 mM MgSO4) was injected thereto to initiate a luminescence reaction, and a luminescence amount was measured using a luminometer AB2200 supplied from ATTO Corporation.

Sequence of firefly luciferase (P08659 whole entry): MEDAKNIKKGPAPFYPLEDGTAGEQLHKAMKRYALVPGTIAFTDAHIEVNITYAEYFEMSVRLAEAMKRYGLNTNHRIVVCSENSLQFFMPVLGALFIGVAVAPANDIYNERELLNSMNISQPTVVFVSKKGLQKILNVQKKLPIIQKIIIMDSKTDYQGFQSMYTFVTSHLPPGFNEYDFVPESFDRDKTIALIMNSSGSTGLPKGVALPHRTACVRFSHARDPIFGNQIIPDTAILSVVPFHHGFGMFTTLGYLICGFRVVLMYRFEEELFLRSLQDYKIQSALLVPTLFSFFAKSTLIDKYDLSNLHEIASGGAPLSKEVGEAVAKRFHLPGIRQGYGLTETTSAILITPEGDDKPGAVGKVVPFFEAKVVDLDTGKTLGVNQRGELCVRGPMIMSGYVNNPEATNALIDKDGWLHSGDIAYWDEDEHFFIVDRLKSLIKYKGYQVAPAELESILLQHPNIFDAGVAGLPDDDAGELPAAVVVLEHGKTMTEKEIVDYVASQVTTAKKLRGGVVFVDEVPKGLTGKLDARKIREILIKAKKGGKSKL

With `CC(C)(COP(=O)(O)OP(=O)(O)OCC1OC(n2cnc3c(N)ncnc32)C(O)C1OP(=O)(O)O)C(O)C(=O)NCCC(=O)NCCSC(=O)C1CSC(c2nc3ccc(O)cc3s2)=N1` (stereo not shown) [luciferyl-CoA] the “luminescence activity (produces luminescence with luciferase)” value was “does not produce the luminescence”.
